For one assay, the system named is rat ileum. The assay is described as follows: Gut permeability, ex-vivo isolated everted ileal sac (FD4 clearance). It counts as in vivo. To be noted: Day 7 after 10 Gy WBI, 20 nmol/rat for 6 days from 24 h. How it is done:
(§1) Animal model of whole body irradiation. Rats were exposed to whole body irradiation (WBI) of 10 Gray (Gy) using a Gammacell® 1000 Irradiator (Atomic Energy of Canada Ltd) [radiation source: Cesium-137 (^137Cs)] delivered at a dose rate of about 2.5 GY/min. The animals were sedated with intra-peritoneal pentobarbital (40 mg/kg BW) prior to irradiation. During radiation, the container rotated continuously in front of the radiation source for even exposure. The animals were then returned to their cages, and food and water were provided.
Blood and Tissue Collection after WBI. Rats exposed to 10 Gy WBI were treated with 20 nmol/rat human ghrelin once a day for 6 days starting at 24 h after radiation. […]
Gut Permeability. Small intestinal mucosal barrier function was assessed by using the ex-vivo isolated everted ileal sac as originally described by Wattanasirichaigoon et al. in 1999 [26] and used by others. […] The length and the diameter of the gut sac were then measured. […] Fluorescence measurements were made with a CYTOFLUOR 2 fluorescence plate reader (PerSeptive Biosystems, Framingham, Mass.) at an excitation wavelength of 480 nm and an emission wavelength of 520 nm. Gut permeability was expressed as the mucosal-to-serosal clearance of FD4 as described in detail by Wattanasirichaigoon et al.. […]

Assay [1] relates to rats exposed to 10 Gy WBI. The assay is described as follows: Survival study after whole body irradiation (WBI). It counts as in vivo, rat. To be noted: 10 Gy WBI rats, 30 day observation, vehicle 30%. How it is done: Experimental animals. Male Sprague-Dawley (SD) rats (250-350 g) purchased from Charles River Laboratories (Wilmington, Mass., USA) were used. The rats were housed in a temperature-controlled room on a 12-h light/dark cycle and fed on a standard Purina rat chow diet. Animal experimentation was carried out in accordance with the Guide for the Care and Use of Laboratory Animals. This project was approved by the Institutional Animal Care and Use Committee (IACUC) of the Feinstein Institute for Medical Research.
Animal model of whole body irradiation. […]
Survival study. To assess the survival benefits of human ghrelin, animals were exposed to 10 Gy WBI and treated with human ghrelin (20 nmol/rat) subcutaneously once a day, with the first dose given either at 24 h or 48 h after WBI, for 6 days and observed for 30 days, and the survival recorded. […] Rats in the survival study were monitored twice daily and weighed once a day during the 30 day survival period. Net weight change was calculated as: % Weight Change ((weight at each day−weight at day 0)/weight at day 0)×100.
Statistical analysis. All data are expressed as mean±SE and analyzed by one way analysis of variance (ANOVA) and compared using Student Newman Keul's test for multiple comparisons. […]

The test system of a further assay is pAkt. As to the kind of experiment: Western blot of jejunal pAkt expression. It counts as in vivo, rat. To be noted: jejunum, Day 7 after 10 Gy WBI; versus vehicle. How it is done: as §1
Blood and Tissue Collection after WBI. Rats exposed to 10 Gy WBI were treated with 20 nmol/rat human ghrelin once a day for 6 days starting at 24 h after radiation. At the 7th day, rats were euthanized, and blood, liver and the small intestine were removed under sterile conditions. […]
Western blot analysis. […] After overnight incubation with the primary antibodies at 4° C., the membranes were washed with TBS-T Immunoreactive bands were detected using HRP-linked secondary antibody (Southern Biotech, Birmingham, Ala.) and the Enhanced Chemiluminescence (ECL) Western blot detection kit (Amersham, Piscataway, N.J.). The immunoblots were exposed to X-ray film and analyzed with the NIH Image J analysis system. […]

Where no end group is shown, it is not given here. The star is where a group is joined. Octanoyl = CCCCCCCC(=O)*

As for “ghrelin (GSS(Octanoyl)FLSPEHQRVQQRKESKKPPAKLQPR; listed as Homo sapiens) [human ghrelin]”, the “gut permeability, reduction from Vehicle” value in the assay on rat ileum came to 38%. In addition, the survival rate in assay [1] (20 nmol/rat s.c. once a day for 6 days starting at 24 h after WBI) worked out at 63%; in assay [1] (20 nmol/rat s.c. once a day for 6 days, treatment initiated at 48 h after WBI), 61%. In addition, the “intestinal pAkt expression” value with pAkt is “further significantly increased”.
